Among the data in ChEMBL document CHEMBL5724696, “Autophagy assay results for EUbOPEN Chemogenomics Library” (2024) are ER-phagy suppression values, retold here.

Molecules are shown by their SMILES.

Test [1] concerns U2OS. In words: (§1) Here: values are normalized to the positive (DMSO; basel flux = defined as 100% suppression) and negative (250nM Torin1; mTOR inhibitor; maximal inducer of autophagy defined as 0% suppression) control compounds and represented as % of ER-phagy suppression. […] The impact of autophagy induction on cells is complex and depends on the affected target. […] Of note, treatment concentrations may be sub-optimal for specific compounds, leading to false negative annotations. The note with it: Compound Concentration 1 uM, Culturing Media DMEM, 1 % Penicillin/Streptomycin, 10% Fetal bovin serum Add-On: blasticidin, Screening Media Control DMEM, 10% Fetal bovin serum Add-On: 1 µg/ml Doxycyclin, Screening Media Samples DMEM, 10% Fetal bovin serum Add-On: 1 µg/ml Doxycyclin 250nM Torin1. It is filed as functional, Homo sapiens.

The test system of test [2] is U2OS. The test is described as §1. It counts as functional, Homo sapiens. The note with it: Compound Concentration 1 uM, Culturing Media DMEM, 1 % Penicillin/Streptomycin, 10% Fetal bovin serum Add-On: blasticidin, Screening Media Control DMEM, 10% Fetal bovin serum Add-On: 1 µg/ml Doxycyclin, Screening Media Samples DMEM, 10% Fetal bovin serum Add-On: 1 µg/ml Doxycyclin 250nM Torin1. The source holds these as a separate data set.

With `Cc1c(NC(=O)c2ccc(C(C)(C)C)cc2)cccc1-c1cn(C)c(=O)c(Nc2ccc(C(=O)N3CCOCC3)cc2)n1`, the ER-phagy suppression is -19.8949% with U2OS [1] (Timepoint 12 hours); -28.4876% in the test with U2OS [1] (Timepoint 24 hours); -32.1203% in the test with U2OS [1] (Timepoint 36 hours); -24.8408% in the test with U2OS [1] (Timepoint 54 hours); -0.6222% in the test with U2OS [2] (Timepoint 12 hours); -11.9993% in the test with U2OS [2] (Timepoint 24 hours). The ER-phagy suppression with U2OS [2] (Timepoint 36 hours) is listed as -14.8569%; in the test on U2OS [2] (Timepoint 60 hours) it was -20.2284%.

Consider `CCOC(=O)c1c(/C(C#N)=C\N)c2ccc(Cl)c(Cl)c2n1C`, for which the ER-phagy suppression was -23.9161% in the test on U2OS [1] (Timepoint 12 hours); -42.4331% in the test on U2OS [1] (Timepoint 24 hours); -44.7519% with U2OS [1] (Timepoint 36 hours); -41.2832% with U2OS [1] (Timepoint 54 hours); -5.524% in the test with U2OS [2] (Timepoint 12 hours); -4.715% in the test with U2OS [2] (Timepoint 24 hours). In addition, the ER-phagy suppression is 1.333% in the test with U2OS [2] (Timepoint 36 hours) and -3.592% in the test on U2OS [2] (Timepoint 60 hours).

With `C[C@@H](N)[C@H]1CC[C@H](C(=O)Nc2ccncc2)CC1.Cl.Cl`, the ER-phagy suppression in the test with U2OS [1] (Timepoint 12 hours) is -40.2837%; in the test on U2OS [1] (Timepoint 24 hours) it was -57.1688%; in the test with U2OS [1] (Timepoint 36 hours), -58.7515%; in the test with U2OS [1] (Timepoint 54 hours), -55.2677%; in the test with U2OS [2] (Timepoint 12 hours), -1.165%; in the test on U2OS [2] (Timepoint 24 hours), -12.4028%. Further, the values for the ER-phagy suppression in the test on U2OS [2] (Timepoint 36 hours) and with U2OS [2] (Timepoint 60 hours) were 0.04526% and 2.669%, respectively.

Regarding `CNc1nc(-c2ccc3c(N)n[nH]c3c2)cc(N2C[C@@H](C(=O)NC3CCCCC3)CC[C@H]2C)n1`, the ER-phagy suppression in the test with U2OS [1] (Timepoint 12 hours) was -64.3148%; in the test with U2OS [1] (Timepoint 24 hours) it was -57.2907%; with U2OS [1] (Timepoint 36 hours), -47.7488%; with U2OS [1] (Timepoint 54 hours), -36.1372%; in the test with U2OS [2] (Timepoint 12 hours) it was 0.4494%; with U2OS [2] (Timepoint 24 hours), -26.9041%. Besides, the ER-phagy suppression with U2OS [2] (Timepoint 36 hours) is listed as -20.7872%; in the test with U2OS [2] (Timepoint 60 hours), -21.6855%.

For the compound `Cc1ccc(NC(=O)Nc2cc(C(F)(F)F)ccc2F)cc1Nc1ccc2c(c1)NC(=O)/C2=C\c1ccc[nH]1`, the ER-phagy suppression in the test on U2OS [1] (Timepoint 12 hours) was -7.664%; in the test on U2OS [1] (Timepoint 24 hours), -22.8744%; in the test on U2OS [1] (Timepoint 36 hours), -24.0512%; in the test on U2OS [1] (Timepoint 54 hours) it was -22.1975%; in the test on U2OS [2] (Timepoint 12 hours) it was 18.743%; with U2OS [2] (Timepoint 24 hours), -2.579%. Moreover, the ER-phagy suppression was -6.116% in the test with U2OS [2] (Timepoint 36 hours) and -1.261% with U2OS [2] (Timepoint 60 hours).

Regarding `CCc1cncnc1N1CCN(Cc2nc3cc(C(F)(F)F)ccc3[nH]2)CC1`, the ER-phagy suppression is listed as -12.878% with U2OS [1] (Timepoint 12 hours); -26.39% with U2OS [1] (Timepoint 24 hours); -24.8445% with U2OS [1] (Timepoint 36 hours); -23.0115% in the test on U2OS [1] (Timepoint 54 hours); -3.169% in the test with U2OS [2] (Timepoint 12 hours); -14.0511% in the test with U2OS [2] (Timepoint 24 hours). Besides, the ER-phagy suppression with U2OS [2] (Timepoint 36 hours) is -20.9455%; with U2OS [2] (Timepoint 60 hours), -35.5971%.

On to `OCCn1cc(-c2ccc3c(c2)CCC3=NO)c(-c2ccncc2)n1`, for which the ER-phagy suppression with U2OS [1] (Timepoint 12 hours) is recorded as -23.6151%; with U2OS [1] (Timepoint 24 hours) it was -59.1263%; in the test with U2OS [1] (Timepoint 36 hours), -53.5237%; with U2OS [1] (Timepoint 54 hours) it was -39.7477%; in the test on U2OS [2] (Timepoint 12 hours), 13.4101%; in the test with U2OS [2] (Timepoint 24 hours) it was 0.6971%. Further, the ER-phagy suppression in the test with U2OS [2] (Timepoint 36 hours) is recorded as -0.91%; in the test with U2OS [2] (Timepoint 60 hours) it was 0.4621%.

Consider `CN(c1ncccc1CNc1nc(Nc2ccc3c(c2)CC(=O)N3)ncc1C(F)(F)F)S(C)(=O)=O.O=S(=O)(O)c1ccccc1`, for which the ER-phagy suppression with U2OS [1] (Timepoint 12 hours) was 6.672%; in the test on U2OS [1] (Timepoint 24 hours), -24.1053%; in the test with U2OS [1] (Timepoint 36 hours), -34.2095%; in the test with U2OS [1] (Timepoint 54 hours) it was -20.8605%; in the test on U2OS [2] (Timepoint 12 hours), -10.0797%; in the test on U2OS [2] (Timepoint 24 hours), -6.87%. The ER-phagy suppression in the test on U2OS [2] (Timepoint 36 hours) is 0.4518%; with U2OS [2] (Timepoint 60 hours), 0.1589%.

In the case of `CCCCNc1ncc(-c2ccc(CN3CCOCC3)cn2)c(N[C@H]2CC[C@H](O)CC2)n1`, the ER-phagy suppression with U2OS [1] (Timepoint 12 hours) was -5.509%; with U2OS [1] (Timepoint 24 hours), -21.7145%; in the test with U2OS [1] (Timepoint 36 hours), -31.345%; in the test on U2OS [1] (Timepoint 54 hours), -19.8135%; in the test on U2OS [2] (Timepoint 12 hours), -8.957%; with U2OS [2] (Timepoint 24 hours), -7.3145%. Moreover, the ER-phagy suppression is listed as 4.583% in the test on U2OS [2] (Timepoint 36 hours) and 12.8118% with U2OS [2] (Timepoint 60 hours).

For the compound `O=C(NCc1cccc(O)c1)Nc1nc(-c2ccncc2)cs1`, the ER-phagy suppression in the test with U2OS [1] (Timepoint 12 hours) was -63.2417%; with U2OS [1] (Timepoint 24 hours) it was -37.1145%; in the test on U2OS [1] (Timepoint 36 hours), 6.149%; in the test with U2OS [1] (Timepoint 54 hours), 46.7933%; in the test on U2OS [2] (Timepoint 12 hours) it was 38.3546%; in the test with U2OS [2] (Timepoint 24 hours), 42.4931%. For the same compound, the figures for the ER-phagy suppression in the test with U2OS [2] (Timepoint 36 hours) and in the test on U2OS [2] (Timepoint 60 hours) were 43.3897% and 45.9293%, respectively.

Take `Cc1ccc(C(=O)Nc2cccc(C(F)(F)F)c2)cc1Nc1nc(-c2cccnc2)nc2c1cnn2C`: the ER-phagy suppression is reported as 20.046% in the test on U2OS [1] (Timepoint 12 hours); 2.016% in the test on U2OS [1] (Timepoint 24 hours); -6.3% with U2OS [1] (Timepoint 36 hours); -2.2204% with U2OS [1] (Timepoint 54 hours); 26.4951% in the test on U2OS [2] (Timepoint 12 hours); 22.3835% in the test on U2OS [2] (Timepoint 24 hours). Further, the ER-phagy suppression in the test on U2OS [2] (Timepoint 36 hours) is on record as 22.4378%; with U2OS [2] (Timepoint 60 hours), 22.9955%.

Consider `CC1=C(C(=O)Nc2cc3cn[nH]c3cc2F)C(c2ccc(C(F)(F)F)cc2)CC(=O)N1` (stereo unspecified), for which the ER-phagy suppression with U2OS [1] (Timepoint 12 hours) is -59.3717%; in the test on U2OS [1] (Timepoint 24 hours) it was -37.062%; in the test with U2OS [1] (Timepoint 36 hours), 5.409%; in the test with U2OS [1] (Timepoint 54 hours) it was 47.7199%; in the test on U2OS [2] (Timepoint 12 hours) it was -7.959%; with U2OS [2] (Timepoint 24 hours) it was -2.49%. Moreover, the ER-phagy suppression was 15.1812% with U2OS [2] (Timepoint 36 hours) and 22.9185% with U2OS [2] (Timepoint 60 hours).

Consider `CCOc1cn(-c2ccc(F)cc2C)nc1C(=O)Nc1ccc(Oc2ccnc3cc(OC)c(OC)cc23)c(F)c1`, for which the ER-phagy suppression was 8.613% with U2OS [1] (Timepoint 12 hours); -11.0646% in the test with U2OS [1] (Timepoint 24 hours); -14.9155% in the test on U2OS [1] (Timepoint 36 hours); -19.0742% in the test with U2OS [1] (Timepoint 54 hours); 7.441% in the test on U2OS [2] (Timepoint 12 hours); -3.201% with U2OS [2] (Timepoint 24 hours). The ER-phagy suppression was 13.658% in the test on U2OS [2] (Timepoint 36 hours) and 1.882% in the test on U2OS [2] (Timepoint 60 hours).

On to `Cc1c(C(=O)Nc2ccc(Oc3ccnc4[nH]cc(-c5ccccc5)c34)c(F)c2)c(=O)n(-c2ccc(F)cc2)n1C`, for which the ER-phagy suppression in the test with U2OS [1] (Timepoint 12 hours) is 3.929%; in the test with U2OS [1] (Timepoint 24 hours) it was -12.4432%; with U2OS [1] (Timepoint 36 hours), -17.5101%; in the test on U2OS [1] (Timepoint 54 hours) it was -17.0737%; in the test with U2OS [2] (Timepoint 12 hours), 11.6236%; in the test with U2OS [2] (Timepoint 24 hours), -15.4691%. Further, the values for the ER-phagy suppression in the test with U2OS [2] (Timepoint 36 hours) and in the test with U2OS [2] (Timepoint 60 hours) were -3.07% and -1.46%, respectively.

With `Cl.Cl.NC1(c2ccc(-c3nc4ccn5c(=O)[nH]nc5c4cc3-c3ccccc3)cc2)CCC1`, the ER-phagy suppression in the test on U2OS [1] (Timepoint 12 hours) was determined as 6.566%; in the test on U2OS [1] (Timepoint 24 hours), 12.3552%; in the test with U2OS [1] (Timepoint 36 hours), 31.5322%; in the test with U2OS [1] (Timepoint 54 hours) it was 46.784%; with U2OS [2] (Timepoint 12 hours), 41.5267%; in the test with U2OS [2] (Timepoint 24 hours) it was 48.6663%. Besides, the figures for the ER-phagy suppression in the test on U2OS [2] (Timepoint 36 hours) and with U2OS [2] (Timepoint 60 hours) were 54.9602% and 60.1398%, respectively.

In the case of `Cl.NC(=O)c1cnc(N[C@@H]2CCCC[C@@H]2N)nc1Nc1cccc(-n2nccn2)c1`, the ER-phagy suppression with U2OS [1] (Timepoint 12 hours) amounted to 27.5492%; in the test on U2OS [1] (Timepoint 24 hours) it was 18.4362%; in the test on U2OS [1] (Timepoint 36 hours), 21.4313%; in the test on U2OS [1] (Timepoint 54 hours), 34.0409%; in the test on U2OS [2] (Timepoint 12 hours), 9.977%; in the test on U2OS [2] (Timepoint 24 hours), 25.4122%. For the same compound, the ER-phagy suppression worked out at 28.6706% in the test on U2OS [2] (Timepoint 36 hours) and 31.7231% in the test with U2OS [2] (Timepoint 60 hours).

As to `COc1cc(C2c3cc4c(cc3[C@H](O)[C@H]3COC(=O)[C@@H]23)OCO4)cc(OC)c1OC` (stereo partly specified), the ER-phagy suppression with U2OS [1] (Timepoint 12 hours) is given as 19.9758%; with U2OS [1] (Timepoint 24 hours), 6.76%; in the test with U2OS [1] (Timepoint 36 hours) it was 5.125%; in the test with U2OS [1] (Timepoint 54 hours), 8.089%; in the test with U2OS [2] (Timepoint 12 hours) it was 13.7164%; in the test on U2OS [2] (Timepoint 24 hours), -2.596%. Also, the figures for the ER-phagy suppression with U2OS [2] (Timepoint 36 hours) and in the test on U2OS [2] (Timepoint 60 hours) were 7.675% and 9.356%, respectively.
